Measurements from patent publication US8710068B2, “Method of treating cancer using a survivin inhibitor” (The Trustees Of The University Of Pennsylvania, priority 2009, dated 2014).

Experiments:
[1] = tested on: HCT116(p53−/−) cells; test: MTT viability assay, HCT116(p53−/−); assay type: cell-based; conditions: 48 hours
Method: FIG. 4 illustrates the effects of S12 on proliferation of p53-positive and p53-negative cancer cells. (A) HCT116(p53+/+) or HCT116(p53−/−) cells were treated with DMSO or S12 at the indicated concentrations for 48 hours. The percentage of viable cells was evaluated by MTT assay.
Thus, inhibition of cell proliferation by S12 is independent of p53 status.

[2] = Western blot for PARP cleavage (caspase activation) and Survivin levels, HeLa; assay type: cell-based, human; conditions: 50 μg/ml, 12 hours, anti-Survivin Western blot
Method: (§1) FIG. 12 illustrates S12 induction of caspase activation in HeLa cells. (A) HeLa cells were incubated with DMSO (control), S12, Taxol, nocodazole (Noco), or etoposide (Etop) for 12 hours. The cell lysates were analyzed by Western blot using the anti-PARP antibody (top panel), the anti-α-tubulin antibody (middle panel), or the anti-Survivin antibody (bottom panel). (B) S12 causes cell death in a cell cycle dependent manner. HeLa cells, either unsynchronized or synchronized by thymidine treatment were incubated either with S12 or DMSO. Cell death was quantitated by trypan blue exclusion assay.
(§2) We examined whether S12 treatment leads to apoptosis. HeLa cells were incubated with S12 at the concentration of 50 μg/ml or with DMSO alone for 12 hours. To compare the effect with that of other therapeutic agents, HeLa cells were also treated with Taxol, nocodazole, or etoposide, respectively. The cell lysates were collected and subjected to Western blot analysis using an anti-PARP antibody. […] We also re-probed the blot with an anti-Survivin antibody. […] These observations, combined with the earlier findings, indicate that the Survivin-targeting molecule S12 can block mitosis and cause apoptosis.

[3] = tested on: PARP; test: as above; assay type: cell-based, human; conditions: 12 hours
Method: as §1, §2

O=C(CC1(O)C(=O)Nc2ccc(Br)cc21)c1ccc2c(c1)OCO2 (stereo not shown) [S12]
reduction of cell viability [1]: equally effective at reducing cell viability | overall Survivin levels [2]: did not significantly affect | cleavage of PARP (caspase activation) ([3]; 50 μg/ml, Western blot): detected | apoptosis induction compared with other agents ([3]; at the concentrations employed): more potent in inducing apoptosis than Taxol, nocodazole, or etoposide
